Data from patent US11147272B2, “Pyridone compounds and agricultural and horticultural fungicides comprising the same as active ingredients” (MITSUI CHEMICALS AGRO, INC., priority 2017, dated 2021).

Key:
[1] = test system: Phytophthora infestans; assay: whole plant or invertebrate; format: in vivo; details: Late blight on tomato; control value class
[2] = test system: Alternaia brassicicola; assay: Test Example C: Alternaria sooty spot on cabbage; format: in vivo; details: Alternaria sooty spot on cabbage; control value class
From the text: Seeds of a test plant (cabbage variety: Shikidori) were planted and cultivated until the cotyledons extended.
<Control Value> Control value=100{1−(n/3)}

[3] = test system: Botrytis cinerea; assay: Test Example B: Gray mold on tomato; details: Gray mold on tomato; control value class
[4] = test system: Colletotrichum orbiculare; assay: Test Example H: Anthracnose on cucumber; details: Anthracnose on cucumber; 250 ppm spray, 6 to 10 days after inoculation
[5] = test system: Blumeria graminis f. sp. hordei; assay: Test Example D: Powdery mildew on barley; details: Powdery mildew on barley; control value class
[6] = test system: Plasmopara viticola; assay: Test Example G: Downy mildew on vine; details: Downy mildew on vine; 250 ppm spray, 7 to 10 days after inoculation
[7] = test system: Magnaporthe grisea; assay: whole plant or invertebrate; format: in vivo; details: Blast on rice; control value class
[8] = test system: Puccinia recondita; assay: Test Example E: Brown rust on wheat; format: in vivo; details: Brown rust on wheat; control value class

CCCC1=C(c2ccc(F)cc2Br)N(C)C(=O)CC1 [compound 341]
L (50% or less control value): Test F control value [1] | Test C control value [2] | Test B control value [3] | Test D control value [5] | Test G control value [6] | Test A control value [7] | Test E control value [8]
H (more than 50% control value): Test H control value [4]

CCc1cc(Cl)c(=O)n(CC)c1-c1ccc(F)cc1Br [compound 342]
H (more than 50% control value): Test C control value [2] | Test B control value [3] | Test H control value [4] | Test D control value [5] | Test A control value [7] | Test E control value [8]
L (50% or less control value): Test F control value [1] | Test G control value [6]

CCc1cc(Br)c(=O)n(CC)c1-c1ccc(F)cc1Br [compound 343]
H (more than 50% control value): Test C control value [2] | Test B control value [3] | Test H control value [4] | Test D control value [5] | Test G control value [6] | Test A control value [7] | Test E control value [8]
L (50% or less control value): Test F control value [1]

CCc1ccc(=O)n(CC)c1-c1ccc(OC)cc1Br [compound 344]
H (more than 50% control value): Test C control value [2] | Test B control value [3] | Test E control value [8]
L (50% or less control value): Test F control value [1] | Test H control value [4] | Test D control value [5] | Test G control value [6] | Test A control value [7]

CCc1cc(Cl)c(=O)n(CC)c1-c1ccc(OC)cc1Br [compound 345]
H (more than 50% control value): Test C control value [2] | Test B control value [3] | Test H control value [4] | Test G control value [6] | Test A control value [7] | Test E control value [8]
L (50% or less control value): Test F control value [1] | Test D control value [5]

CCc1cc(Br)c(=O)n(CC)c1-c1ccc(OC)cc1Br [compound 346]
H (more than 50% control value): Test C control value [2] | Test B control value [3] | Test H control value [4] | Test G control value [6] | Test A control value [7] | Test E control value [8]
L (50% or less control value): Test F control value [1] | Test D control value [5]

CCc1ccc(=O)n(CC)c1-c1ccc(F)cc1C [compound 347]
L (50% or less control value): Test F control value [1] | Test H control value [4] | Test D control value [5] | Test G control value [6] | Test A control value [7] | Test E control value [8]
H (more than 50% control value): Test C control value [2] | Test B control value [3]

CCc1ccc(=O)n(C)c1-c1ccc(F)cc1Br [compound 348]
L (50% or less control value): Test F control value [1] | Test C control value [2] | Test H control value [4] | Test G control value [6] | Test A control value [7]
H (more than 50% control value): Test B control value [3] | Test D control value [5] | Test E control value [8]

CCc1cc(Cl)c(=O)n(C)c1-c1ccc(F)cc1Br [compound 349]
H (more than 50% control value): Test C control value [2] | Test B control value [3] | Test D control value [5] | Test G control value [6] | Test E control value [8]
L (50% or less control value): Test F control value [1] | Test H control value [4] | Test A control value [7]

CCc1cc(Br)c(=O)n(C)c1-c1ccc(F)cc1Br [compound 350]
H (more than 50% control value): Test C control value [2] | Test B control value [3] | Test G control value [6] | Test E control value [8]
L (50% or less control value): Test F control value [1] | Test H control value [4] | Test D control value [5] | Test A control value [7]

CCc1cc(Cl)c(=O)n(CC)c1-c1ccc(F)cc1C [compound 351]
H (more than 50% control value): Test C control value [2] | Test B control value [3] | Test H control value [4] | Test D control value [5] | Test E control value [8]
L (50% or less control value): Test F control value [1] | Test G control value [6] | Test A control value [7]

CCc1cc(Br)c(=O)n(CC)c1-c1ccc(F)cc1C [compound 352]
L (50% or less control value): Test F control value [1] | Test G control value [6]
H (more than 50% control value): Test C control value [2] | Test B control value [3] | Test H control value [4] | Test D control value [5] | Test A control value [7] | Test E control value [8]

CCc1ccc(=O)n(CC)c1-c1ccc(OC)cc1C [compound 353]
H (more than 50% control value): Test D control value [5] | Test E control value [8]
L (50% or less control value): Test F control value [1] | Test C control value [2] | Test B control value [3] | Test H control value [4] | Test G control value [6] | Test A control value [7]

CCc1ccc(=O)n(C)c1-c1ccc(OC)cc1Br [compound 354]
L (50% or less control value): Test F control value [1] | Test C control value [2] | Test B control value [3] | Test D control value [5] | Test G control value [6] | Test A control value [7]
H (more than 50% control value): Test H control value [4] | Test E control value [8]

CCc1cc(Cl)c(=O)n(CC)c1-c1ccc(OC)cc1C [compound 355]
H (more than 50% control value): Test C control value [2] | Test B control value [3] | Test H control value [4] | Test D control value [5] | Test A control value [7] | Test E control value [8]
L (50% or less control value): Test F control value [1] | Test G control value [6]

CCc1cc(Br)c(=O)n(CC)c1-c1ccc(OC)cc1C [compound 356]
H (more than 50% control value): Test C control value [2] | Test B control value [3] | Test H control value [4] | Test D control value [5] | Test A control value [7] | Test E control value [8]
L (50% or less control value): Test F control value [1] | Test G control value [6]

CCc1cc(Cl)c(=O)n(C)c1-c1ccc(OC)cc1Br [compound 357]
H (more than 50% control value): Test B control value [3] | Test H control value [4] | Test A control value [7] | Test E control value [8]
L (50% or less control value): Test F control value [1] | Test C control value [2] | Test D control value [5] | Test G control value [6]

CCc1cc(Br)c(=O)n(C)c1-c1ccc(OC)cc1Br [compound 358]
L (50% or less control value): Test F control value [1] | Test C control value [2] | Test H control value [4] | Test G control value [6] | Test A control value [7]
H (more than 50% control value): Test B control value [3] | Test D control value [5] | Test E control value [8]
